Reference: patent US7704508B2, “Babesia subtilisin” (New York Blood Center, priority 2007, dated 2010)
Starred links: 1 amine or outer side, 2 acyl side, 3 side chain; linkers in the order of their positions; H or OH if unused. Non-standard residues stand in square brackets, D forms with d. Residues, ends and D or L forms follow the SMILES beside them. ξ: configuration not given here. *: point of attachment. Sta = CC(C)C[C@H](N)[C@@H](O)CC(=O)O; Isovaleryl = CC(C)CC(=O)*; ξF = NC(Cc1ccccc1)C(=O)O; CO = O=C([*:1])[*:2]

What was measured:
[1] = system: B. divergens; assay: Effect of protease inhibitors on B. divergens growth in culture (parasitemia by YOYO-1 flow cytometry, T72); format: cell-based; conditions: for inhibition of growth / decrease of parasitemia after 72 h: 50 and 100 μM, compared to control; for Growth T72 50 μM (inhibition) / Growth T72 100 μM (inhibition) / inhibition at 50 µM / inhibition at 100 µM: T72
Method: (§1) Parasitemia for B. divergens was assessed in human RBCs using a modification of the methods of Barkan et al. (Int. J. Parasitol. 30:649-53, 2000) and Jimenez-Diaz et al. (Cytometry A 67:27-36, 2005), both of which are incorporated by reference herein for all they contain regarding assessment of parasitemia. DNA content was measured after staining with YOYO-1 (a high affinity cell-impermeant dye that increases green fluorescence by 1000-fold when bound to dsDNA) observed infected erythrocytes compared with non-infected human erythrocytes for B. divergens.
(§2) To assess the effect of various protease inhibitors, parasitemia was assessed in 180 parasite samples taken at different time points (0 and after 10, 24, 48 and 72 h). In parallel with the evaluation of the parasitemia by FACS (fluorescence activated cell sorting), 60 random parasite samples were analyzed by light microscopy using Giemsa-stained thin blood smears, with 500-1000 RBCs being counted for each smear. […] Integration of the numbers of events represented in the right peak provides a direct estimate of the parasitemia, where one infected cell is one event.
(§3) Protease inhibitors were tested for their ability to inhibit the invasion and growth of B. divergens in vitro.
(§4) The effects of EGTA, a chelating agent capable of binding metal ions including Ca^2+, on the invasion and growth of B. divergens was tested. EGTA cannot permeate the biological membrane of cells so its effects are only on the chelation of extracellular ions. As many serine proteases require Ca^2+ for activity, EGTA also functions as a serine protease inhibitor.

[2] = system: B. divergens; assay: Effect of protease inhibitors on B. divergens erythrocyte invasion (parasitemia by YOYO-1 flow cytometry, T10); format: cell-based; conditions: for inhibition of invasion: 50 and 100 μM, relative to control; for inhibition at 50 µM / inhibition at 100 µM: Erythrocyte
Method: as §1, §2, §3, §4

[3] = system: BdSUB-1; assay: Effect of brefeldin A on BdSUB-1 processing during secretory transport (western blot); format: cell-based, B. divergens; conditions: 40 μg/ml BFA in methanol, 1 hour, 37° C., western blot with PfSUB1m antibodies
Method: Monitoring the effect of brefeldin A. The effects of brefeldin A (BFA, Sigma) on BdSUB-1 processing during secretory transport was monitored using ^35S-radiolabeled B. divergens cultures. The drug was prepared as a stock solution in methanol at 1 mg ml^−1 and then added to parasite cultures to a final concentration of 40 μg ml^−1 BFA. Methanol was added to the control cultures and cells were cultured at 37° C. in a […], 5% nitrogen and 5% oxygen for 1 hour. Samples were washed in PBS, lysed in saponin buffer and analyzed by western blot using the anti-PfSUB1m antibodies.
BdSUB-1 undergoes post-translational processing during secretory transport. […] In order to examine whether BdSUB-1 undergoes intracellular post-translational processing steps within the parasite secretory pathway, brefeldin A (BFA) was employed, which blocks secretory transport of proteins from the endoplasmic reticulum (ER) to the Golgi apparatus. Western-blot analysis was performed on parasite lysates that were obtained from cultures grown in the presence or absence of BFA, using anti-PfSUB1m antibodies. […] Thus, BdSUB-1 is initially synthesized as a large precursor protein of ˜78 kDA and cleavage of the signal peptide results in the formation of p75, which is the largest detectable protein seen in the assays. This p75 is then processed to p55, which then gets converted to p48 in the Golgi. […]

## NCCc1ccc(S(=O)(=O)F)cc1 [ABSF, 4-(2-aminoethyl)benzenesulfonyl fluoride]
[1]
  Growth T72 50 μM (inhibition): 8.8 ± 7.4%
  Growth T72 100 μM (inhibition): 28.0 ± 5.0%
[2]; T10
  Invasion T10 50 μM (inhibition): 3.3 ± 6.8%
  Invasion T10 100 μM (inhibition): 34.0 ± 9.0%

## O=c1oc(Cl)c(Cl)c2ccccc12 [3,4 DCI]
[1]
  Growth T72 50 μM (inhibition): 70.7 ± 1.4%
  Growth T72 100 μM (inhibition): 76.0 ± 2.3%
  inhibition of growth / decrease of parasitemia after 72 h: 76%
[2]; T10
  Invasion T10 50 μM (inhibition): 38.0 ± 2.0%
  Invasion T10 100 μM (inhibition): 43.0 ± 1.2%
[2]
  inhibition of invasion: 40%

## C[C@H]1CCC/C=C/[C@@H]2C[C@H](O)C[C@H]2[C@H](O)/C=C/C(=O)O1 [BFA, brefeldin A]
[3]
  BdSUB-1 processing / secretory transport: blocked the secretory transport of BdSUB-1 from the ER to the Golgi apparatus

## O=S(=O)(F)Cc1ccccc1 [PMSF, phenylmethylsulfonyl fluoride]
[1]
  Growth T72 50 μM (inhibition): 45.0 ± 5.2%
  Growth T72 100 μM (inhibition): 46.7 ± 3.3%
[2]; T10
  Invasion T10 50 μM (inhibition): 28.0 ± 8.9%
  Invasion T10 100 μM (inhibition): 35.0 ± 18.0%

## O=C(O)CN(CCOCCOCCN(CC(=O)O)CC(=O)O)CC(=O)O [EGTA, ethylene glycol tetraacetic acid]
[1]
  Growth T72 1 mM (inhibition): 82.0 ± 0.4%
  Growth T72 3 mM (inhibition): 83.0 ± 0.5%
  growth of the parasite after 72 h, lower than the control: 83%
[2]; 1 mM, T10
  Invasion T10 1 mM (inhibition): 48.0 ± 3.1%
[2]; 3 mM, T10
  Invasion T10 3 mM (inhibition): 52.0 ± 2.6%
[2]; Ca2+ added in the same concentration as EGTA
  reversal of inhibition of invasion and growth by Ca2+: completely reversed
[2]; EGTA 1, 2 and 3 mM
  percentage of inhibition on invasion: 50%

## Cc1ccc(S(=O)(=O)N[C@@H](CCCCN)C(=O)CCl)cc1 [TLCK, N-α-tosyl-L-lysine chloromethyl ketone]
[1]
  Growth T72 50 μM (inhibition): 92.1 ± 3.0%
  Growth T72 100 μM (inhibition): 94.1 ± 0.9%
  inhibition of growth / decrease of parasitemia after 72 h: approximately 90%
[1]; microscopy of treated cultures
  morphology of the parasites during invasion and growth inhibition assay: no alteration in the morphology of the parasites
[2]; T10
  Invasion T10 50 μM (inhibition): 64.0 ± 3.1%
  Invasion T10 100 μM (inhibition): 60.0 ± 2.0%
[2]
  inhibition of invasion: ~60%

## CC(C)CC(=O)N[C@H](C(=O)N[C@H](C(=O)N[C@@H](CC(C)C)[C@@H](O)CC(=O)N[C@@H](C)C(=O)N[C@@H](CC(C)C)[C@@H](O)CC(=O)O)C(C)C)C(C)C [Pepstatin, pepstatin] (Isovaleryl-VV[Sta]A[Sta]-OH)
[1]
  inhibition at 50 µM: 9.1 ± 3.1%
  inhibition at 100 µM: 16 ± 9.2%
[2]; T10
  inhibition at 50 µM: 17 ± 6.4%
  inhibition at 100 µM: 2 ± 0.8%

## CC(C)[C@H](NC(=O)[C@H](CCCNC(=N)N)NC(=O)NC(Cc1ccccc1)C(=O)O)C(=O)N[C@H](C=O)CCCNC(=N)N (stereo partly drawn) [Antipain, (1-carboxy-2-phenylethyl)carbamoyl-L-arginyl-L-valylargininal] ({ξF-CO}-Arg-Val-Arg-aldehyde)
[1]
  inhibition at 50 µM: 15 ± 8.4%
  inhibition at 100 µM: 16 ± 8.5%
[2]; T10
  inhibition at 50 µM: 33 ± 6.5%
  inhibition at 100 µM: 37.7 ± 14.1%
